The assay deals with T1, KCNT1 (KNa1.1, Slack) (Homo sapiens, UniProt Q5JUK3).
T1 construct: expressed in transfected cells; host or cells: HEK-TREX (tetracycline-inducible HEK cell line)
T1 sequence (Q5JUK3 1-1230): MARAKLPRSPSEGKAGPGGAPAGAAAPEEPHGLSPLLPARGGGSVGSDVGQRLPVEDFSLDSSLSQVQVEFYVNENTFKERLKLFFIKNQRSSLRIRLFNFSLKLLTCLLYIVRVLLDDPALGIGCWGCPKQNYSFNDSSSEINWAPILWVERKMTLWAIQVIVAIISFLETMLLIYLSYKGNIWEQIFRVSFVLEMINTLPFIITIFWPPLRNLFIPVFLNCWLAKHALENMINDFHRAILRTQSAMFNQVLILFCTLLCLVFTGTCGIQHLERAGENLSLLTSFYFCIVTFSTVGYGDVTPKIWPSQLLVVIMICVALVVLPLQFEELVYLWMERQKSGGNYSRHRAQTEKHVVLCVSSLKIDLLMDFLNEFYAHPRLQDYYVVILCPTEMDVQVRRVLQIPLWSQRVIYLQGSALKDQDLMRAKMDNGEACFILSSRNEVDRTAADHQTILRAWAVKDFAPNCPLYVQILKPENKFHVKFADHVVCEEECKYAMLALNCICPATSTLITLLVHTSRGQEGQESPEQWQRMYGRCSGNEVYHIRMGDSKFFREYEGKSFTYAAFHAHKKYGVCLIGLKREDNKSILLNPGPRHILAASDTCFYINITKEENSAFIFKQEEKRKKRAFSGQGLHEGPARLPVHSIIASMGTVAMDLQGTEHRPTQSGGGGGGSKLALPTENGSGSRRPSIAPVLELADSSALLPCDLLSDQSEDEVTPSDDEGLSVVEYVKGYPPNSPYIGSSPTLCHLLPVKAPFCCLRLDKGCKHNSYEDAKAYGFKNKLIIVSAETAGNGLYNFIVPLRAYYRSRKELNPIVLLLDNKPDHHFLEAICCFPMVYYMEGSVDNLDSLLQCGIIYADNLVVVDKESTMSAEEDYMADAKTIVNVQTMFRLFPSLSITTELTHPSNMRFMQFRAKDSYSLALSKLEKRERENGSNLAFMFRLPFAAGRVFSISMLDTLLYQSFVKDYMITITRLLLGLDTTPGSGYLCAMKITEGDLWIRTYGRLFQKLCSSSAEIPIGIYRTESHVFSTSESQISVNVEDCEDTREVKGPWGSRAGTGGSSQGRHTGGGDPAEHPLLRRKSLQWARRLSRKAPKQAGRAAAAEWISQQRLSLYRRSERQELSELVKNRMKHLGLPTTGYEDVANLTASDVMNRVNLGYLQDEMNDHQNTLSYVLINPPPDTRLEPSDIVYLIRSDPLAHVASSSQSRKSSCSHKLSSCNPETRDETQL
The assay is described as follows: KCNT1 patch clamp assay (SyncroPatch 384PE automated patch clamp). The assay is classed as cell-based. The following applies: tetracycline inducible HEK-TREX cell line; perforated patch; step from −80 mV to 0 mV; room temperature; read-out: KCNT1-WT IC50. The protocol:
KCNT1—Patch Clamp Assay Inhibition of KCNT1 (KNa1.1, Slack) was evaluated using a tetracycline inducible cell line (HEK-TREX). Currents were recorded using the SyncroPatch 384PE automated, patch clamp system. Pulse generation and data collection were performed with PatchController384 V1.3.0 and DataController384 V1.2.1 (Nanion Technologies). The access resistance and apparent membrane capacitance were estimated using built-in protocols. Current were recorded in perforated patch mode (10 μM escin) from a population of cells. […] The cells were allowed to recover in the cell hotel prior to experimentation. Currents were recorded at room temperature. […] The extracellular solution was used as the wash, reference and compound delivery solution. […] Escin is made at a 5 mM stock in water, aliquoted, and stored at −20° C. The compound plate was created at 2× concentrated in the extracellular solution. The compound was diluted to 1:2 when added to the recording well. The amount of DMSO in the extracellular solution was held constant at the level used for the highest tested concentration. A holding potential of −80 mV with a 100 ms step to 0 mV was used. […] The average mean current from 3 sweeps was calculated and the % inhibition of each compound was calculated. The % Inhibition as a function of the compound concentration was fit with a Hill equation to derive IC50, slope, min and max parameters.

As a reminder, the IC50 is the concentration that inhibits the measured activity by half.

Some results are limits rather than exact numbers.

Regarding `C[C@H](NC(=O)c1cc(C(F)(F)F)nn1C)c1nc(-c2ccnc(C3(C)CC3)c2)no1` [Compound 240, (S)-1-methyl-N-(1-(3-(2-(1-methylcyclopropyl)pyridin-4-yl)-1,2,4-oxadiazol-5-yl)ethyl)-3-(trifluoromethyl)-1H-pyrazole-5-carboxamide], the IC50 is at most 1000 nM.
With `Cn1nc(C(F)(F)F)cc1C(=O)NC(CS(C)(=O)=O)c1nc(-c2cccc(F)c2)no1` (centres unmarked) [Compound 171], the IC50 lay in the range of 1000 to 20000 nM.
The result for `C[C@H](NC(=O)c1cc(-c2ccc(F)cc2)nn1C)c1nc(-c2ccnc(C3CC3)c2)no1` [Compound 228, (S)—N-(1-(3-(2-cyclopropylpyridin-4-yl)-1,2,4-oxadiazol-5-yl)ethyl)-3-(4-fluorophenyl)-1-methyl-1H-pyrazole-5-carboxamide] reads at most 1000 nM.
Consider `Cn1nc(C(F)(F)F)cc1C(=O)NC(CC(=O)N1CC(O)C1)c1nc(-c2cccc(F)c2)no1` (centres unmarked) [Compound 123], for which the IC50 is at least 20000 nM.
The same measure for `CC(NC(=O)c1c2c(nn1C)CCCC2)c1nc(-c2cccc(F)c2)no1` (centres unmarked) [Compound 133]: 1000 to 20000 nM; for `C[C@H](NC(=O)c1cc(C(F)(F)F)nn1C)c1nc(-c2ccnc(C3CCC3)c2)no1` (single isomer, unassigned) [Compound 278]: at most 1000 nM; for `Cc1nn(C(C)C)cc1C(=O)N[C@@H](C)c1nc(-c2cc(F)cc(F)c2)no1` [Compound 92]: at most 1000 nM.
Regarding `Cc1nn(-c2ccc(F)cc2)cc1C(=O)N[C@@H](C)c1nc(-c2cccc(F)c2)no1` [Compound 154], the concentration for half-maximal inhibition (IC50) is at most 1000 nM.
Take `CCOC(=O)N[C@@H](C)c1nc(-c2ccnc(C3CC3)c2)no1` [Compound 274]: the IC50 is at most 1000 nM.
Take `Cc1cccc(-c2noc([C@@H](C)NC(=O)c3cn(C(C)C)nc3C)n2)c1` [Compound 232, 1-isopropyl-3-methyl-N-[(1R)-1-[3-(m-tolyl)-1,2,4-oxadiazol-5-yl]ethyl]pyrazole-4-carboxamide]: the concentration for half-maximal inhibition (IC50) was at least 20000 nM.
The result for `Cc1nn(C(C)C)cc1C(=O)N[C@@H](C)c1nc(-c2cccc(C#N)c2)no1` [Compound 85] reads at least 20000 nM; that for `CC(C)C(NC(=O)c1cc(C2CC2)nn1C)c1nc(-c2cccc(F)c2)no1` (centres unmarked) [Compound 45], at most 1000 nM.
On to `CC(=O)NC[C@H](NC(=O)c1cc(C(F)(F)F)nn1C)c1nc(-c2cccc(F)c2)no1` [Compound 134], for which the IC50 was at least 20000 nM.
Regarding `C[C@@H](NC(=O)c1cn(C)nc1C(F)F)c1nc(-c2cccc(F)c2)no1` [Compound 187, (R)-3-(difluoromethyl)-N-(1-(3-(3-fluorophenyl)-1,2,4-oxadiazol-5-yl)ethyl)-1-methyl-1H-pyrazole-4-carboxamide], the concentration for half-maximal inhibition (IC50) is at least 20000 nM.
The same measure for `Cc1nn(C(C)C)cc1C(=O)N[C@@H](C)c1nc(-c2ccc(Cl)c(F)c2)no1` [Compound 86]: at most 1000 nM; for `CC[C@H](NC(=O)c1cc(C)nn1-c1cccnc1)c1nc(-c2ccnc(C)c2)no1` [Compound 231, (S)-3-methyl-N-(1-(3-(2-methylpyridin-4-yl)-1,2,4-oxadiazol-5-yl)propyl)-1-(pyridin-3-yl)-1H-pyrazole-5-carboxamide]: 1000 to 20000 nM; for `C[C@H](NC(=O)c1cc(C(F)(F)F)nn1C)c1nc(-c2ccnc(N3CCCCC3)c2)no1` (single isomer, unassigned) [Compound 209]: at most 1000 nM.
In the case of `C[C@H](NC(=O)c1cc(C(F)(F)F)nn1C)c1nc(-c2cccc(C#N)c2)no1` [Compound 104], the half-inhibitory concentration (IC50) lay in the range of 1000 to 20000 nM.
On to `Cc1nn(C(C)C)cc1C(=O)N[C@@H](C)c1nc(-c2ccc(F)c(F)c2)no1` [Compound 87], for which the IC50 fell in the range of 1000 to 20000 nM.
The result for `CC(c1nc(-c2cccc(CO)c2)no1)N(C)C(=O)c1cc(C(F)(F)F)nn1C` (centres unmarked) [Compound 177, N-(1-(3-(3-(hydroxymethyl)phenyl)-1,2,4-oxadiazol-5-yl)ethyl)-N,1-dimethyl-3-(trifluoromethyl)-1H-pyrazole-5-carboxamide] reads at least 20000 nM; that for `Cn1nc(C2CC2)cc1C(=O)NC1(c2nc(-c3cccc(F)c3)no2)CCCCC1` [Compound 66], at most 1000 nM.
Regarding `C[C@H](NC(=O)c1cn(CC(F)(F)F)nc1C1CC1)c1nc(-c2cccc(F)c2)no1` [Compound 151], the IC50 was in the range of 1000 to 20000 nM.
Regarding `C[C@H](NC(=O)c1cc(C(F)F)nn1C)c1nc(-c2ccnc(C(F)(F)F)c2)no1` [Compound 238], the IC50 is at most 1000 nM.
For the molecule `Cc1cccc(-c2noc(C(C)NC(=O)c3cc(C(F)F)nn3C)n2)c1` (centres unmarked) [Compound 21], the IC50 was at most 1000 nM.
With `Cc1cc(C(=O)N[C@@H](C)c2nc(-c3ccnc(C4CC4)c3)no2)n(C)n1` [Compound 227, (S)—N-(1-(3-(2-cyclopropylpyridin-4-yl)-1,2,4-oxadiazol-5-yl)ethyl)-1,3-dimethyl-1H-pyrazole-5-carboxamide], the IC50 is at most 1000 nM.
The same measure for `C[C@H](NC(=O)c1ccnn1C1CCC1)c1nc(-c2ccnc(C3CC3)c2)no1` [Compound 304, 2-cyclobutyl-N-[(1S)-1-[3-(2-cyclopropyl-4-pyridyl)-1,2,4-oxadiazol-5-yl]ethyl]pyrazole-3-carboxamide]: at most 1000 nM; for `Cn1nc(C2CC2)cc1C(=O)NC(c1ccccc1)c1nc(-c2cccc(F)c2)no1` (centres unmarked) [Compound 51]: 1000 to 20000 nM; for `C[C@H](NC(=O)c1cc(C(F)(F)F)nn1C)c1nc(-c2ccnc(C(F)(F)F)n2)no1` [Compound 242, (S)-1-methyl-3-(trifluoromethyl)-N-(1-(3-(2-(trifluoromethyl)pyrimidin-4-yl)-1,2,4-oxadiazol-5-yl)ethyl)-1H-pyrazole-5-carboxamide]: 1000 to 20000 nM.
For the molecule `COCC(NC(=O)c1cc(C(F)(F)F)nn1C)c1nc(-c2cccc(C)c2)no1` (centres unmarked) [Compound 72], the IC50 is at most 1000 nM.
As for `C[C@@H](NC(=O)OC(C)(C)C)c1nc(-c2cccc(F)c2)no1` [Compound 282, tert-butyl (R)-(1-(3-(3-fluorophenyl)-1,2,4-oxadiazol-5-yl)ethyl)carbamate], the IC50 lay in the range of 1000 to 20000 nM.
As for `C[C@H](NC(=O)OCc1ccccc1)c1nc(-c2ccnc(C3CC3)c2)no1` [Compound 273], the half-maximal inhibitory concentration (IC50) is at most 1000 nM.
`C[C@H](NC(=O)c1cc(C(F)(F)F)nn1C)c1nc(-c2ccc(F)c(F)c2)no1` (single isomer, unassigned) [Compound 77]: the IC50 was at most 1000 nM.
Consider `CC[C@H](NC(=O)c1cc(C(F)(F)F)nn1C)c1nc(-c2ccnc(C)c2)no1` [Compound 199, (S)-1-methyl-N-(1-(3-(2-methylpyridin-4-yl)-1,2,4-oxadiazol-5-yl)propyl)-3-(trifluoromethyl)-1H-pyrazole-5-carboxamide], for which the IC50 was at most 1000 nM.
Regarding `C[C@H](NC(=O)c1cc(C(F)(F)F)nn1CCN1CCCC1)c1nc(-c2ccnc(C(F)(F)F)c2)no1` [Compound 257, (S)-1-(2-(pyrrolidin-1-yl)ethyl)-3-(trifluoromethyl)-N-(1-(3-(2-(trifluoromethyl)pyridin-4-yl)-1,2,4-oxadiazol-5-yl)ethyl)-1H-pyrazole-5-carboxamide], the IC50 was at most 1000 nM.
With `C[C@H](NC(=O)OC(C)(C)C)c1nc(-c2cccc(F)c2)no1` [Compound 281, tert-butyl N-[(1S)-1-[3-(3-fluorophenyl)-1,2,4-oxadiazol-5-yl]ethyl]carbamate], the IC50 fell in the range of 1000 to 20000 nM.
